# Assay results taken from patent US8802597B2, “Herbicidal pyrimidines” (E I du Pont de Nemours and Company, priority 2003, dated 2014).
# Read-outs that look alike come from different tables or passages of the source.
# Tests used:
# Assay in all cases: Test C pre/postemergence
# Type in all cases: in vivo
# [1] = test system: common ragweed (Ambrosia elatior); settings: Ambrosia artemisiifolia, pre-emergence, Preemergence, read-out: Plant response rating, Ragweed
# Procedure, shortened: (§1)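 We sprayed seeded pots preemergence and 2–18 cm seedlings postemergence with test chemicals in a non-phytotoxic solvent mixture including surfactant. Greenhouse plants were visually compared with untreated controls at 12 to 14 days and scored 0 (no effect) to 100 (complete control).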
# soybean (Glycine max) = settings: Glycine max; for plant injury at 62 g/ha: 62 g ai/ha; for plant injury at 125 g/ha: 125 g ai/ha; for plant injury at 250 g/ha: 250 g ai/ha; for plant injury at 500 g/ha: 500 g ai/ha
# Procedure, shortened: as §1
# [2] = test system: velvetleaf (Abutilon theophrasti); settings: Abutilon theophrasti; for pest or weed control at 62 g/ha: 62 g ai/ha; for pest or weed control at 125 g/ha: 125 g ai/ha; for pest or weed control at 250 g/ha: 250 g ai/ha; for pest or weed control at 500 g/ha: 500 g ai/ha
# Procedure, shortened: as §1
# kochia (Kochia scoparia) = settings: Bassia scoparia; for pest or weed control at 62 g/ha: 62 g ai/ha; for pest or weed control at 125 g/ha: 125 g ai/ha; for pest or weed control at 250 g/ha: 250 g ai/ha; for pest or weed control at 500 g/ha: 500 g ai/ha
# Procedure, shortened: as §1
# [3] = test system: bermudagrass (Cynodon dactylon); settings: Cynodon dactylon; for pest or weed control at 62 g/ha: 62 g ai/ha; for pest or weed control at 125 g/ha: 125 g ai/ha; for pest or weed control at 125 g/ha / pest or weed control at 250 g/ha / pest or weed control at 500 g/ha: scale 0 to 100; for pest or weed control at 250 g/ha: 250 g ai/ha; for pest or weed control at 500 g/ha: 500 g ai/ha
# Procedure, shortened: as §1
# [4] = test system: lambsquarters (Chenopodium album); settings: Chenopodium album; for pest or weed control at 62 g/ha: 62 g ai/ha; for pest or weed control at 125 g/ha: 125 g ai/ha; for pest or weed control at 250 g/ha: 250 g ai/ha; for pest or weed control at 500 g/ha: 500 g ai/ha
# Procedure, shortened: as §1
# [5] = post-emergence, Postemergence, scale 0 to 100 (0 no effect, 100 complete control), read-out: Soybean plant response rating
# [6] = post-emergence, Postemergence, scale 0 to 100, read-out: Plant response rating, Soybean
# [7] = pre-emergence, Preemergence, scale 0 to 100, read-out: Plant response rating, Soybean
# [8] = post-emergence, Postemergence, scale 0 to 100 (0 no effect, 100 complete control), read-out: Velvetleaf plant response rating
# [9] = post-emergence, Postemergence, scale 0 to 100, read-out: Plant response rating, Velvetleaf
# [10] = pre-emergence, Preemergence, scale 0 to 100, read-out: Plant response rating, Velvetleaf
# [11] = post-emergence, Postemergence, scale 0 to 100 (0 no effect, 100 complete control), read-out: Kochia plant response rating
# [12] = post-emergence, Postemergence, scale 0 to 100, read-out: Plant response rating, Kochia
# [13] = pre-emergence, Preemergence, scale 0 to 100, read-out: Plant response rating, Kochia
# [14] = post-emergence, Postemergence, read-out: Plant response rating, Bermudagrass
# [15] = pre-emergence, Preemergence, read-out: Plant response rating, Bermudagrass
# [16] = post-emergence, Postemergence, scale 0 to 100 (0 no effect, 100 complete control), read-out: Lambsquarters plant response rating
# [17] = post-emergence, Postemergence, scale 0 to 100, read-out: Plant response rating, Lambsquarters
# [18] = pre-emergence, Preemergence, scale 0 to 100, read-out: Plant response rating, Lambsquarters
smiles,measurement,setting,value
"CCOC(=O)c1nc(C2CC2)nc(N)c1Cl [Compound 4, ethyl 6-amino-5-chloro-2-cyclopropyl-4-pyrimidinecarboxylate]",pest or weed control at 62 g/ha,"[1]; 62 g ai/ha, scale 0 to 100, 0 no effect, 100 complete control",100%
same,pest or weed control at 125 g/ha,"[1]; 125 g ai/ha, scale 0 to 100",100%
same,pest or weed control at 250 g/ha,"[1]; 250 g ai/ha, scale 0 to 100",100%
same,pest or weed control at 500 g/ha,"[1]; 500 g ai/ha, scale 0 to 100",100%
same,plant injury at 62 g/ha,soybean (Glycine max); [5],100%
same,plant injury at 125 g/ha,soybean (Glycine max); [5],100%
same,plant injury at 250 g/ha,soybean (Glycine max); [6],100%
same,plant injury at 500 g/ha,soybean (Glycine max); [6],100%
same,plant injury at 62 g/ha,"soybean (Glycine max); pre-emergence, Preemergence, scale 0 to 100, 0 no effect, 100 complete control, read-out: Plant response rating, Soybean",95%
same,plant injury at 125 g/ha,soybean (Glycine max); [7],100%
same,plant injury at 250 g/ha,soybean (Glycine max); [7],100%
same,plant injury at 500 g/ha,soybean (Glycine max); [7],100%
same,pest or weed control at 62 g/ha,[2]; [8],80%
same,pest or weed control at 125 g/ha,[2]; [8],100%
same,pest or weed control at 250 g/ha,[2]; [9],100%
same,pest or weed control at 500 g/ha,[2]; [9],100%
same,pest or weed control at 62 g/ha,"[2]; pre-emergence, Preemergence, scale 0 to 100, 0 no effect, 100 complete control, read-out: Plant response rating, Velvetleaf",75%
same,pest or weed control at 125 g/ha,[2]; [10],95%
same,pest or weed control at 250 g/ha,[2]; [10],95%
same,pest or weed control at 500 g/ha,[2]; [10],100%
same,pest or weed control at 62 g/ha,kochia (Kochia scoparia); [11],100%
same,pest or weed control at 125 g/ha,kochia (Kochia scoparia); [11],100%
same,pest or weed control at 250 g/ha,kochia (Kochia scoparia); [12],100%
same,pest or weed control at 500 g/ha,kochia (Kochia scoparia); [12],100%
same,pest or weed control at 62 g/ha,"kochia (Kochia scoparia); pre-emergence, Preemergence, scale 0 to 100, 0 no effect, 100 complete control, read-out: Plant response rating, Kochia",95%
same,pest or weed control at 125 g/ha,kochia (Kochia scoparia); [13],100%
same,pest or weed control at 250 g/ha,kochia (Kochia scoparia); [13],100%
same,pest or weed control at 500 g/ha,kochia (Kochia scoparia); [13],100%
same,pest or weed control at 62 g/ha,"[3]; post-emergence, Postemergence, scale 0 to 100 (0 no effect, 100 complete control), read-out: Bermudagrass plant response rating",40%
same,pest or weed control at 125 g/ha,[3]; [14],65%
same,pest or weed control at 250 g/ha,[3]; [14],70%
same,pest or weed control at 500 g/ha,[3]; [14],80%
same,pest or weed control at 62 g/ha,"[3]; pre-emergence, Preemergence, scale 0 to 100, 0 no effect, 100 complete control, read-out: Plant response rating, Bermudagrass",0%
same,pest or weed control at 125 g/ha,[3]; [15],20%
same,pest or weed control at 250 g/ha,[3]; [15],45%
same,pest or weed control at 500 g/ha,[3]; [15],95%
same,pest or weed control at 62 g/ha,[4]; [16],100%
same,pest or weed control at 125 g/ha,[4]; [16],100%
same,pest or weed control at 250 g/ha,[4]; [17],100%
same,pest or weed control at 500 g/ha,[4]; [17],100%
same,pest or weed control at 62 g/ha,"[4]; pre-emergence, Preemergence, scale 0 to 100, 0 no effect, 100 complete control, read-out: Plant response rating, Lambsquarters",95%
same,pest or weed control at 125 g/ha,[4]; [18],100%
same,pest or weed control at 250 g/ha,[4]; [18],100%
same,pest or weed control at 500 g/ha,[4]; [18],100%
